Values quoted from earlier work, collected in patent publication US9554577B2, “Herbicidal formulation” (priority 2011, dated 2017).

Assays:
[1] = chlorinated hydrocarbons and aromatic solvents such as methylene chloride, acetone and xylene

CCC(CC)Nc1c([N+](=O)[O-])cc(C)c(C)c1[N+](=O)[O-] [Pendimethalin, n-(1-ethylpropyl)-3,4-dimethyl-2,6-dinitrobenzenamine]
solubility in organic solvents [1]: soluble
stability under acidic and alkaline conditions: stable
